Laboratory results reported in paper PMC6108835, “Target-Based Discovery of an Inhibitor of the Regulatory Phosphatase PPP1R15B” (Cell, 2018).

Experiments:
R15B [1] = molecular target: T1, R15B (Homo sapiens, UniProt Q5SWA1); assay: R15B levels on immunoblots of HeLa cell lysates; assay type: cell-based; details: HeLa cells, Raphin1 10 μM
T1 construct: endogenous in cells; host or cells: HeLa
T1 sequence (Q5SWA1 1-713): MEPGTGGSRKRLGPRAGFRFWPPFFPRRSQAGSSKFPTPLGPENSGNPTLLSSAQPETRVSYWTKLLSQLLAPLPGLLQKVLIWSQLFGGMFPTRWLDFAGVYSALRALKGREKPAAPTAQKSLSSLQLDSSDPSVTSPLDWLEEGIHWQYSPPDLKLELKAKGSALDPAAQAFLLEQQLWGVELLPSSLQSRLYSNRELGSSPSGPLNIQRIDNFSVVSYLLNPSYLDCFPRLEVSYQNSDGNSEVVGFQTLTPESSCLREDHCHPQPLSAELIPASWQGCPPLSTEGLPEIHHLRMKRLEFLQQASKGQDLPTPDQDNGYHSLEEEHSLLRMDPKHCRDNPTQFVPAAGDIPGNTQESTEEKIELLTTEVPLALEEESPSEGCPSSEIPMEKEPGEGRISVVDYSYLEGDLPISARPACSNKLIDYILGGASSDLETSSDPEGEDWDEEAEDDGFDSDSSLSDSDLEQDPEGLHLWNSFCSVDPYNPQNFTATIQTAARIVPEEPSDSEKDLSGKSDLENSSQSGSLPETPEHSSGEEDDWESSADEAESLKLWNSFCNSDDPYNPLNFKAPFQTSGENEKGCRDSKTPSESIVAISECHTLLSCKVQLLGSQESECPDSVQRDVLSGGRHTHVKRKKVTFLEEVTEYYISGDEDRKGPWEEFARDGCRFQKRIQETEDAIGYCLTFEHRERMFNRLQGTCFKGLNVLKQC
Protocol: HeLa or MEF cells (90,000 cells/mL) were plated in 12-well plates (1 mL/well). The following day cells were treated as indicated; the medium was removed, fresh medium containing compound added and incubated at 37°C for the times indicated. The time course was performed in reverse order to facilitate collecting all samples at the same time. At the end of treatment cells were washed two times with ice-cold PBS and lysed in 150 μL Laemmli Buffer. […] Proteins were transferred to the nitrocellulose membrane using the iBlot 2 system (ThermoFisher Scientific). Membrane was blocked in 5% skimmed milk for 30 min and then probed with primary antibodies followed by incubation with the appropriate horseradish peroxidase-conjugated secondary antibodies (Promega). Proteins were visualized using ECL Prime (GE Healthcare) and imaged in the Chemi-Smart 5000 (Vilber-Lourmat, France) or ChemiDoc Touch (BioRad). Bands were quantified using ImageJ (NIH, USA).

[2] = molecular target: Adrenergic α2A (FAST-006A) receptor (Homo sapiens, UniProt P08913); assay: α2-adrenergic activity in cells expressing recombinant receptor (Euroscreen); assay type: cell-based; details: agonist testing, also videos of mice at 10 mg/kg
Protocol: α2-adrenergic activity was measured by Euroscreen. Adrenergic α2A (FAST-006A) receptor cells grown 18 hr prior to the test in media without antibiotics were detached by gentle flushing with PBS-EDTA (5 mM EDTA), recovered by centrifugation and re-suspended in “assay buffer” (DMEM/HAM’s F12 with HEPES + 0.1% BSA protease free). Cells were incubated at RT for at least 4 hr with Coelenterazine h (Molecular Probes). Dose response curves with the reference compounds were performed before testing the compounds. For agonist testing, 50 μL of cell suspension was mixed with 50 μL of test compound or reference agonist plated in a 96-well plate. The resulting emission of light was recorded using the Hamamatsu Functional Drug Screening System 6000 (FDSS 6000). Agonist activity of test compound was expressed as a percentage of the activity of the reference agonist at its EC100 concentration.

R15B^340–698 = molecular target: T2, R15B^340–698 (Homo sapiens, UniProt Q5SWA1); assay: eIF2α pull down with MBP-tagged R15B; assay type: biochemical; details: Raphin1 200 μM, P-eIF2α 1 μM
T2 construct: made in house; host or cells: E. coli BL21-Gold (DE3) pLysS
Protocol: (§1) Recombinant eIF2α was produced as described in [Ito et al. (2004)] and pull down experiments were carried out as previously described ([Carrara et al., 2017]). Amylose beads (New England BioLabs) were pre-equilibrated with interaction buffer (50 mM Tris pH 7.4, 200 mM NaCl, 0.05% Tween20). 20 μL amylose beads were incubated with purified MBP-tagged R15s (200 nM), P-eIF2α (1 μM) as appropriate, plus 200 μM Raphin1, or DMSO vehicle in a total volume of 200 μL. Input samples (5%) was removed at this step, and added to 4% SDS-Laemmli sample buffer. Beads were incubated for 10 min at 4°C with 20 rpm gentle rotation. The beads were washed 5 × 1 mL with interaction buffer, transferred to a fresh tube and finally resuspended with 50 μL 4% SDS-Laemmli sample buffer. Eluded beads were boiled and then run on 4%–12% NuPAGE Bis-Tris gels (ThermoFisher Scientific). Anti-MBP HRP (New England BioLabs (#E8038); 1:5,000) (to probe for R15s) and anti-eIF2α (AbCam (#ab26197); 1:1,000) antibodies were used for immunoblotting analyses of samples.

R15A^325–636 = molecular target: T3, R15A^325–636 (Homo sapiens, UniProt O75807); assay: eIF2α pull down with MBP-tagged R15A; assay type: biochemical; details: Raphin1 200 μM, P-eIF2α 1 μM
T3 construct: made in house; host or cells: E. coli BL21-Gold (DE3) pLysS
Protocol: as §1

[3] = Glucose tolerance test in wild-type mice; assay type: in vivo, mouse; details: 2 mg/kg daily for 8 weeks
Protocol: Treatment- and test-naive 4 weeks old C3H/B6 males were used. Raphin1 was administered to mice daily for 8 weeks before the test. After the overnight 14 hr starvation mice were injected intraperitoneally with D-glucose (Sigma-Aldrich) at 2 g glucose/kg body weight. Right before and at the indicated time points after the injection blood samples were collected from the tail vein and the blood glucose concentration was determined using The Accu-Chek Aviva Blood Glucose Meter (Roche).

R15B [4] = molecular target: T4, R15B (Homo sapiens, UniProt Q5SWA1); assay: Limited trypsin digestion of R15B; details: R15 3 μM, compound 100 μM, trypsin 5 nM, 5 min, 22°C
T4 construct: cDNAs encoding amino acids 325-636 of R15A and 340-698 of R15B were cloned into pMAL-c5x; made in house; host or cells: E. coli BL21-Gold (DE3) pLysS
Protocol: Reactions were initiated by addition of 5 nM of trypsin from bovine pancreas (Sigma-Aldrich), made up in PBS, and allowed to proceed for 5 min at 22°C, with shaking at 350 rpm. […] Proteins were visualized by staining with InstantBlue Protein Stain (Expedeon).

Adrenergic α2A (FAST-006A) receptor, sequence (P08913 whole entry): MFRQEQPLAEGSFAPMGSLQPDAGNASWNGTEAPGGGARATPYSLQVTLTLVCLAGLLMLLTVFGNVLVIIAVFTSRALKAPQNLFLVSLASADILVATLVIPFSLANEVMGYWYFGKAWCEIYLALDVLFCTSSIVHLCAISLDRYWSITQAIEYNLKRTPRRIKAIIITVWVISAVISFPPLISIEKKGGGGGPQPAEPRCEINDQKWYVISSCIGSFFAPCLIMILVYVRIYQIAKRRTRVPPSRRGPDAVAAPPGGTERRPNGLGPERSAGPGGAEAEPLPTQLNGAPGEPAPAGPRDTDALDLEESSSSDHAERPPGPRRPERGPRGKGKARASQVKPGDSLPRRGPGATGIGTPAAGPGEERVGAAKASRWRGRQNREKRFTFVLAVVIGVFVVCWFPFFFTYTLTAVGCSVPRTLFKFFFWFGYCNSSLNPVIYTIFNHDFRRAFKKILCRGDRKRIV
T3 sequence (O75807 325-636, stated change not applied): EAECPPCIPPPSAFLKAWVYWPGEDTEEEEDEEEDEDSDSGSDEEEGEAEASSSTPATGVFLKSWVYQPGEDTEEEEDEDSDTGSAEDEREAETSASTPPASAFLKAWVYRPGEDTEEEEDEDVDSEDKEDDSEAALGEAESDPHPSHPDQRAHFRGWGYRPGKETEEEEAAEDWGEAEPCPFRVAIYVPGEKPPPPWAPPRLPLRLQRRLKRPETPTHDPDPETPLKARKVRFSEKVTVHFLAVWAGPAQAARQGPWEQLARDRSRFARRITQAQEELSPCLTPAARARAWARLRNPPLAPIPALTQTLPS

In the case of `[H]/N=C(\N)NN=Cc1cccc(Cl)c1Cl` [Raphin1, (E)-2-(2,3-dichlorobenzylidene)hydrazine-1-carboximidamide], the R15B levels (R15B [1]) is reported as “significantly decreased”, the α2-adrenergic activity [2] is reported as “lacked” and the “Recruitment of eIF2α to R15B” value (R15B^340–698) is reported as “decreased”. The “Recruitment of eIF2α to R15A” value (R15A^325–636) was “no such effect”, the “Adverse effects on glucose tolerance” value [3] was “no obvious adverse effects” and the “Protease sensitivity of R15B (limited proteolysis, conformational change)” value (R15B [4]) was “protected”.
